Test results from ChEMBL document CHEMBL1201862, “PubChem BioAssay data set” (2004).
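Briefly, cells in 96-well plates were exposed to five compound concentrations for 48 h, and endpoints were estimated by linear interpolation. Abbreviation: GI50, concentration required for 50% inhibition of growth.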 Activity calls are given as the source filed them. Cut-off read from the data, not from the text of the source: active = GI50 up to about 1.1 µM and inactive = higher.

How the values were obtained:
Assay in all cases: NCI-60 cell line screen, 48 h
786-0 = test system: 786-0
SK-OV-3 = test system: SK-OV-3
A549 = test system: A549
ACHN = test system: ACHN
T47D = test system: T47D
CAKI-1 = test system: CAKI-1
IGROV-1 = test system: IGROV-1
HCT-116 = test system: HCT-116
CCRF-CEM = test system: CCRF-CEM
LOX IMVI = test system: LOX IMVI
HCT-15 = test system: HCT-15
PC-3 = test system: PC-3
M14 = test system: M14
U-251 = test system: U-251
HL-60 = test system: HL-60
MDA-N = test system: MDA-N
SNB-75 = test system: SNB-75
UO-31 = test system: UO-31
RPMI-8226 = test system: RPMI-8226
K562 = test system: K562
SN12C = test system: SN12C
KM12 = test system: KM12
COLO 205 = test system: COLO 205
BT-549 = test system: BT-549
NCI-H522 = test system: NCI-H522
NCI/ADR-RES = test system: NCI/ADR-RES
Malme-3M = test system: Malme-3M
HOP-62 = test system: HOP-62
TK-10 = test system: TK-10
HOP-92 = test system: HOP-92
UACC-62 = test system: UACC-62
HT-29 = test system: HT-29
SF-295 = test system: SF-295
SK-MEL-2 = test system: SK-MEL-2
OVCAR-3 = test system: OVCAR-3
HCC 2998 = test system: HCC 2998
NCI-H23 = test system: NCI-H23
A498 = test system: A498
SR = test system: SR
OVCAR-5 = test system: OVCAR-5
MCF7 = test system: MCF7
OVCAR-8 = test system: OVCAR-8
MDA-MB-435 = test system: MDA-MB-435
UACC-257 = test system: UACC-257
RXF 393 = test system: RXF 393
SW-620 = test system: SW-620
NCI-H226 = test system: NCI-H226
NCI-H460 = test system: NCI-H460
OVCAR-4 = test system: OVCAR-4
SK-MEL-5 = test system: SK-MEL-5
SF-539 = test system: SF-539
DU-145 = test system: DU-145
SK-MEL-28 = test system: SK-MEL-28
EKVX = test system: EKVX
MOLT-4 = test system: MOLT-4
MDA-MB-231 = test system: MDA-MB-231
SNB-19 = test system: SNB-19
Hs-578T = test system: Hs-578T
SF-268 = test system: SF-268

Compound: Cn1c(-c2ccco2)ccc1-c1ccc(C=O)o1
- GI50 (786-0): > 100 µM (inactive)
- GI50 (SK-OV-3): > 100 µM (inactive)
- GI50 (A549): > 100 µM (inactive)
- GI50 (ACHN): 49.7 µM (inactive)
- GI50 (T47D): 38.1 µM (inactive)
- GI50 (CAKI-1): 13 µM (inactive)
- GI50 (IGROV-1): 38.2 µM (inactive)
- GI50 (HCT-116): 24.2 µM (inactive)
- GI50 (CCRF-CEM): 27.5 µM (inactive)
- GI50 (LOX IMVI): 34.8 µM (inactive)
- GI50 (HCT-15): 72.4 µM
- GI50 (PC-3): > 100 µM (inactive)
- GI50 (M14): 35 µM (inactive)
- GI50 (U-251): 39.1 µM (inactive)
- GI50 (HL-60): 21.5 µM (inactive)
- GI50 (MDA-N): 35.7 µM (inactive)
- GI50 (SNB-75): > 100 µM (inactive)
- GI50 (UO-31): 46.7 µM (inactive)
- GI50 (RPMI-8226): 29 µM (inactive)
- GI50 (K562): 37.5 µM (inactive)
- GI50 (SN12C): 77.6 µM (inactive)
- GI50 (KM12): > 100 µM (inactive)
- GI50 (COLO 205): > 100 µM (inactive)
- GI50 (BT-549): 95.7 µM (inactive)
- GI50 (NCI-H522): > 100 µM (inactive)
- GI50 (NCI/ADR-RES): 33 µM (inactive)
- GI50 (Malme-3M): > 100 µM (inactive)
- GI50 (HOP-62): > 100 µM (inactive)
- GI50 (TK-10): > 100 µM (inactive)
- GI50 (HOP-92): 31 µM (inactive)
- GI50 (UACC-62): 60.3 µM (inactive)
- GI50 (HT-29): 44.9 µM (inactive)
- GI50 (SF-295): > 100 µM (inactive)
- GI50 (SK-MEL-2): > 100 µM (inactive)
- GI50 (OVCAR-3): 45.6 µM (inactive)
- GI50 (HCC 2998): > 100 µM (inactive)
- GI50 (NCI-H23): 94.6 µM (inactive)
- GI50 (A498): 92.3 µM (inactive)
- GI50 (SR): 31 µM (inactive)
- GI50 (OVCAR-5): > 100 µM (inactive)
- GI50 (MCF7): 30.5 µM (inactive)
- GI50 (OVCAR-8): 37.3 µM (inactive)
- GI50 (MDA-MB-435): 68.1 µM (inactive)
- GI50 (UACC-257): > 100 µM (inactive)
- GI50 (RXF 393): > 100 µM (inactive)
- GI50 (SW-620): 33.4 µM (inactive)
- GI50 (NCI-H226): > 100 µM (inactive)
- GI50 (NCI-H460): > 100 µM (inactive)
- GI50 (OVCAR-4): 56.4 µM (inactive)
- GI50 (SK-MEL-5): 64.1 µM (inactive)
- GI50 (SF-539): 21.5 µM (inactive)
- GI50 (DU-145): 52.4 µM (inactive)
- GI50 (SK-MEL-28): 48.6 µM (inactive)
- GI50 (EKVX): 48.8 µM (inactive)
- GI50 (MOLT-4): 23.3 µM (inactive)
- GI50 (MDA-MB-231): 79.1 µM (inactive)
- GI50 (SNB-19): > 100 µM (inactive)

Compound: CCOc1cc2c(cc1O)CC[C@@H]1[C@@H]2CC[C@]2(C)[C@@H](O)CC[C@@H]12
- GI50 (786-0): 0.0301 µM (active)
- GI50 (SK-OV-3): 0.138 µM (active)
- GI50 (A549): 0.0378 µM (active)
- GI50 (ACHN): 0.0123 µM (active)
- GI50 (CAKI-1): 0.0644 µM (active)
- GI50 (IGROV-1): 1.18 µM (inactive)
- GI50 (HCT-116): 0.0234 µM (active)
- GI50 (CCRF-CEM): 0.0274 µM (active)
- GI50 (Hs-578T): 0.0306 µM (active)
- GI50 (LOX IMVI): 0.0179 µM (active)
- GI50 (HCT-15): < 0.0138 µM
- GI50 (PC-3): 1.62 µM (inactive)
- GI50 (M14): 0.0261 µM (active)
- GI50 (U-251): 0.0803 µM (active)
- GI50 (HL-60): 0.014 µM (active)
- GI50 (MDA-N): 0.0107 µM (active)
- GI50 (SNB-75): 0.0168 µM (active)
- GI50 (UO-31): 0.256 µM (active)
- GI50 (SF-268): 0.0612 µM (active)
- GI50 (RPMI-8226): 0.0252 µM (active)
- GI50 (K562): < 0.0171 µM (active)
- GI50 (SN12C): 0.0778 µM (active)
- GI50 (KM12): 1.22 µM (inactive)
- GI50 (COLO 205): 12.7 µM (inactive)
- GI50 (BT-549): 0.0125 µM (active)
- GI50 (NCI-H522): < 0.0117 µM (active)
- GI50 (NCI/ADR-RES): 0.0173 µM (active)
- GI50 (HOP-62): 0.0447 µM (active)
- GI50 (HOP-92): 0.0537 µM (active)
- GI50 (UACC-62): 0.019 µM (active)
- GI50 (HT-29): 4.88 µM (inactive)
- GI50 (SF-295): 0.138 µM (active)
- GI50 (SK-MEL-2): 0.118 µM (active)
- GI50 (OVCAR-3): 0.0184 µM (active)
- GI50 (HCC 2998): 0.532 µM (active)
- GI50 (NCI-H23): 0.0667 µM (active)
- GI50 (A498): 2.09 µM (inactive)
- GI50 (SR): < 0.0192 µM (active)
- GI50 (OVCAR-5): 10.8 µM (inactive)
- GI50 (MCF7): 0.0287 µM (active)
- GI50 (OVCAR-8): 0.109 µM (active)
- GI50 (MDA-MB-435): 0.0112 µM (active)
- GI50 (UACC-257): < 0.01 µM (active)
- GI50 (RXF 393): 0.0387 µM (active)
- GI50 (SW-620): 0.0183 µM (active)
- GI50 (NCI-H226): 0.423 µM (active)
- GI50 (NCI-H460): 0.0228 µM (active)
- GI50 (OVCAR-4): 12.4 µM (inactive)
- GI50 (SK-MEL-5): 0.0188 µM (active)
- GI50 (SF-539): 0.0158 µM (active)
- GI50 (DU-145): 0.0547 µM (active)
- GI50 (SK-MEL-28): 0.443 µM (active)
- GI50 (EKVX): 0.497 µM (active)
- GI50 (MOLT-4): 0.0401 µM (active)
- GI50 (MDA-MB-231): 0.188 µM (active)
- GI50 (SNB-19): 0.0334 µM (active)

Compound: CCOc1ccccc1N1CSc2nnc(-c3ccccc3)n2C1
- GI50 (786-0): > 100 µM (inactive)
- GI50 (SK-OV-3): > 100 µM (inactive)
- GI50 (A549): > 100 µM (inactive)
- GI50 (ACHN): > 100 µM (inactive)
- GI50 (T47D): > 100 µM (inactive)
- GI50 (CAKI-1): > 100 µM (inactive)
- GI50 (IGROV-1): > 100 µM (inactive)
- GI50 (HCT-116): 53.8 µM (inactive)
- GI50 (CCRF-CEM): 20 µM (inactive)
- GI50 (HCT-15): > 100 µM
- GI50 (PC-3): > 100 µM (inactive)
- GI50 (M14): > 100 µM (inactive)
- GI50 (U-251): > 100 µM (inactive)
- GI50 (MDA-N): > 100 µM (inactive)
- GI50 (UO-31): > 100 µM (inactive)
- GI50 (SF-268): > 100 µM (inactive)
- GI50 (RPMI-8226): 33.8 µM (inactive)
- GI50 (K562): > 100 µM (inactive)
- GI50 (SN12C): > 100 µM (inactive)
- GI50 (KM12): > 100 µM (inactive)
- GI50 (COLO 205): 68.1 µM (inactive)
- GI50 (BT-549): > 100 µM (inactive)
- GI50 (NCI-H522): > 100 µM (inactive)
- GI50 (NCI/ADR-RES): > 100 µM (inactive)
- GI50 (Malme-3M): > 100 µM (inactive)
- GI50 (HOP-62): > 100 µM (inactive)
- GI50 (TK-10): > 100 µM (inactive)
- GI50 (HOP-92): > 100 µM (inactive)
- GI50 (UACC-62): > 100 µM (inactive)
- GI50 (HT-29): 73.3 µM (inactive)
- GI50 (SF-295): > 100 µM (inactive)
- GI50 (SK-MEL-2): > 100 µM (inactive)
- GI50 (OVCAR-3): > 100 µM (inactive)
- GI50 (HCC 2998): > 100 µM (inactive)
- GI50 (NCI-H23): > 100 µM (inactive)
- GI50 (A498): > 100 µM (inactive)
- GI50 (SR): 44.4 µM (inactive)
- GI50 (OVCAR-5): > 100 µM (inactive)
- GI50 (MCF7): 97.3 µM (inactive)
- GI50 (OVCAR-8): > 100 µM (inactive)
- GI50 (MDA-MB-435): > 100 µM (inactive)
- GI50 (UACC-257): > 100 µM (inactive)
- GI50 (RXF 393): > 100 µM (inactive)
- GI50 (SW-620): 49 µM (inactive)
- GI50 (NCI-H226): > 100 µM (inactive)
- GI50 (NCI-H460): > 100 µM (inactive)
- GI50 (OVCAR-4): > 100 µM (inactive)
- GI50 (SK-MEL-5): > 100 µM (inactive)
- GI50 (SF-539): > 100 µM (inactive)
- GI50 (DU-145): > 100 µM (inactive)
- GI50 (SK-MEL-28): > 100 µM (inactive)
- GI50 (MOLT-4): > 100 µM (inactive)
- GI50 (MDA-MB-231): > 100 µM (inactive)
